{"source": "paper PMC5120204", "about": "“Identification of an orally active small-molecule PTHR1 agonist for the treatment of hypoparathyroidism” (Nature Communications, 2016)", "target": "T1, hPTHR1 (Homo sapiens, UniProt Q03431)", "T1 construct": "similar to that of cells expressing full-length hPTHR1; expressed in transfected cells; host or cells: COS-7 (transient, FuGENE HD)", "T1 sequence (Q03431 27-593 E93Y/D94P/K95Y/E96D/A97V/T99D/G100Y/S101A)": "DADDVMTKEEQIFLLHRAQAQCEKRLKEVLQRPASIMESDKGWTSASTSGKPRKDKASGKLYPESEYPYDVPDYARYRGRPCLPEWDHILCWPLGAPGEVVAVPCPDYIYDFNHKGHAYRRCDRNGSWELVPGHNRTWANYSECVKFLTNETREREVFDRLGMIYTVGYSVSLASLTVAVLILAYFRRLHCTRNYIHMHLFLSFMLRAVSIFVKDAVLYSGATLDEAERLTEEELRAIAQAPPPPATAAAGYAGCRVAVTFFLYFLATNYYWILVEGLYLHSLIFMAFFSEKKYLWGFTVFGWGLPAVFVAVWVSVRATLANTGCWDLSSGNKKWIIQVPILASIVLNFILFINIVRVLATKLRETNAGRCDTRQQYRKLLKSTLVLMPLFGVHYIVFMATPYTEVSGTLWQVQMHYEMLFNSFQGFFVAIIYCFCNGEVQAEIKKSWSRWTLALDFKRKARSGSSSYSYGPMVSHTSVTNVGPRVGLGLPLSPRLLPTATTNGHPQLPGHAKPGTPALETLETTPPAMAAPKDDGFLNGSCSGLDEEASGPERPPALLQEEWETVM", "test": "Receptor binding assay, competition with 125I-[Aib1,3,M]–PTH(1–15) on COS-7 membranes", "settings": "at 100 μmol l^−1", "experimental": "COS-7 cells (ATCC) were seeded into 10-cm dishes (1.7 × 10^6 cells per dish) and incubated overnight. The next day, the COS-7 cells were transfected by adding 500 μl of a mixture of hPTHR1 plasmid (10 μg per dish), FuGENE HD Transfection Reagent (40 μl per dish, Promega) and Opti-MEM I Reduced Serum Medium (450 μl per well, Life Technologies) to each dish. On the third day after the cells were seeded into the dishes, the culture medium in the dishes was discarded, each dish was washed with 5 ml of Buffer A (10 mmol l^−1 Tris-HCl, pH 7.4/4 mmol l^−1 EDTA) without protease inhibitor cocktail (PI; Nacalai Tesque, Inc.), and then 750 μl of Buffer A (10 mmol l^−1 Tris-HCl, pH 7.4/4 mmol l^−1 EDTA/1 × PI) was added to each dish. […] The protein concentration was determined using Protein Assay Dye Reagent Concentrate (Bio-Rad Laboratories, Inc). […]\nThe binding of hPTH(1–34) and PCO371 free base to hPTHR1 was evaluated by competition assay using ^125I-[Aib^1,3,M]PTH(1–15) as the competing entity. […] The dried filter was recovered, and the ^125I radioactivity was measured using a gamma counter. […] Total ^125I count rates (cpm) measured by the gamma counter were used as the primary data. Binding to hPTHR1 was evaluated by calculating the per cent specific binding from the following formula using Microsoft Office Excel 2007.\nPercentage specific binding was calculated by the following formula: equation (1) […]"}
{"compound": "Cc1cc(N2C(=O)NC(=O)C2(C)C)cc(C)c1CCS(=O)(=O)N1CCC2(CC1)N=C(c1ccc(OC(F)(F)F)cc1)NC2=O", "note": "[PCO371, 1-{3,5-dimethyl-4-[2-({4-oxo-2-[4-(trifluoromethoxy)phenyl]-1,3,8-triazaspiro[4.5]dec-1-en-8-yl}sulfonyl)ethyl]phenyl}-5,5-dimethylimidazolidine-2,4-dione]", "values": [{"measurement": "inhibition of the binding of 125I-[Aib1,3,M]–PTH(1–15)", "value": "almost completely"}]}
